Assay results as given in patent publication US7994185B2, “Benzene sulfonamide thiazole and oxazole compounds” (Glaxo Smith Kline LLC, priority 2008, dated 2011).

How the values were obtained:
[1] = system: Human melanoma cancer cells (SK-MEL-28); assay: Cell growth inhibition assay (CellTiter-Glo), SK-MEL-28; assay type: cell-based; conditions: SK-MEL-28, Table 3b, later runs, average for the one or more runs, categorized, read-out: IC50 for SK-MEL-28
MALME-3M = assay: 3 day proliferation assay, B-Raf V600E mutant cancer cell line; assay type: cell-based; conditions: Homo sapiens, Skin, BRAF V600E, read-out: Mean gIC50
UACC-257 = assay: as above; assay type: cell-based; conditions: Homo sapiens; UACC-257, Skin, BRAF V600E; read-out: Mean gIC50
UCLA-SO-M14 = assay: as above; assay type: cell-based; conditions: UCLA-SO-M14, Skin, BRAF V600E; read-out: Mean gIC50
UACC-62 = assay: as above; assay type: cell-based; conditions: Homo sapiens; UACC-62, Skin, BRAF V600E; read-out: Mean gIC50
RKO = assay: as above; assay type: cell-based; conditions: Homo sapiens, Colon, BRAF V600E, read-out: Mean gIC50
HT-29 = assay: as above; assay type: cell-based; conditions: Homo sapiens, HT-29, Colon, BRAF T119S, read-out: Mean gIC50
A375P F11s [2] = assay: as above; assay type: cell-based; conditions: Skin, BRAF V600E, read-out: Mean gIC50
A101D = assay: as above; assay type: cell-based; conditions: Homo sapiens, Skin, BRAF V600E, read-out: Mean gIC50
WM115 = assay: as above; assay type: cell-based; conditions: Homo sapiens, WM-115, WM115, Skin, BRAF V600D, read-out: Mean gIC50
A673 = assay: as above; assay type: cell-based; conditions: Homo sapiens; A673, Muscle, BRAF V600E; read-out: Mean gIC50
SW872 = assay: as above; assay type: cell-based; conditions: Homo sapiens; SW872, Connective tissue, BRAF V600E; read-out: Mean gIC50
SH-4 = assay: as above; assay type: cell-based; conditions: Homo sapiens; SH-4, Skin, BRAF V600E; read-out: Mean gIC50
SW1417 = assay: as above; assay type: cell-based; conditions: Homo sapiens; SW1417, Colon, BRAF V600E; read-out: Mean gIC50
SK-MEL-1 = assay: as above; assay type: cell-based; conditions: Homo sapiens; SK-MEL-1, Skin, BRAF V600E; read-out: Mean gIC50
GCT = assay: as above; assay type: cell-based; conditions: Homo sapiens, Skin, BRAF V600E, read-out: Mean gIC50
[3] = system: Human colon tumor cells (Colo205); assay: Cell growth inhibition assay (CellTiter-Glo), Colo205; assay type: cell-based; conditions: COLO 205, Table 2b, later runs, average for the one or more runs, categorized, read-out: IC50 for Colo205
Outline: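 Luminescent ATP read-out (CellTiter-Glo) served as a proxy for cell number; percent growth inhibition was calculated against DMSO vehicle wells. Cells were treated for 3 days at 37 °C with serially diluted compound, 0.2% DMSO final.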

[4] = system: cancer cell lines encoding B-Raf V600E mutation; assay: 3 day proliferation assay, panel of 22 mutant cancer cell lines; assay type: cell-based; conditions: number of cell lines of the panel
DU4475 = assay: 3 day proliferation assay, B-Raf V600E mutant cancer cell line; assay type: cell-based; conditions: Homo sapiens, DU-4475; DU4475, Breast, BRAF V600E; read-out: Mean gIC50
A375P F11s [5] = assay: Dose dependent tumor inhibition, A375P F11s xenograft; assay type: in vivo, athymic mice; design: key: −: indicates no response; +: indicates growth delay (1-2x doubling); ++: indicates growth delay (>2x doubling); +++: indicates stable disease; ++++: indicates partial regression; +++++: indicates complete regression; conditions: oral, 14-day period
Method: 1. […] Tumor cells (2×10^6 A375P F11s) were implanted subcutaneously into the right flank of athymic mice on Day 1. To facilitate their growth, A375P F11s cells were suspended in Matrigel diluted 1:1 in phosphate-buffered saline before implantation. When tumors had reached approximately 200 mm^3 in volume (Day 19-22), tumor-bearing mice were randomized into study groups (n=7 or 8). Animals were dosed orally once or twice daily for a 14-day period. […] Tumor growth was measured twice a week using calipers for the duration of the study. Tumor volumes were calculated as a product of (length×width×width)/2 and median values were used to compare groups. Complete regressions (CR) were defined as three consecutive tumor measurements of ≦13.5 mm^3. Partial regressions were defined as three consecutive measurements of ≦50% of starting tumor volume. Tumor growth delay was defined as the difference in time taken for treated and control groups to reach 1000 mm^3 (T-C1000).

COLO 205 = assay: 3 day proliferation assay, B-Raf V600E mutant cancer cell line; assay type: cell-based; conditions: Homo sapiens; COLO 205, Colon, BRAF V600E; read-out: Mean gIC50
NCI-H292 = assay: as above; assay type: cell-based; conditions: Homo sapiens, NCI-H292, Lung, BRAF T119S, read-out: Mean gIC50
SK-MEL-3 = assay: as above; assay type: cell-based; conditions: Homo sapiens, SK-MEL3; SK-MEL-3, Skin, BRAF V600E; read-out: Mean gIC50
SK-MEL-28 = assay: as above; assay type: cell-based; conditions: Homo sapiens; SK-MEL-28, Skin, BRAF V600E; read-out: Mean gIC50
C32TG = assay: as above; assay type: cell-based; conditions: Skin, BRAF V600E, read-out: Mean gIC50
ES-2 = assay: as above; assay type: cell-based; conditions: Homo sapiens; ES-2, Ovary, BRAF V600E; read-out: Mean gIC50

Work on `CC(C)(C)c1nc(-c2cccc(NS(=O)(=O)c3c(F)cccc3F)c2F)c(-c2ccnc(N)n2)s1` [Example 58a, N-{3-[5-(2-Amino-4-pyrimidinyl)-2-(1,1-dimethylethyl)-1,3-thiazol-4-yl]-2-fluorophenyl}-2,6-difluorobenzenesulfonamide] yielded an IC50 [1] of under 100 nM, an IC50 (MALME-3M) of under 100 nM and an IC50 (UACC-257) of under 100 nM. It also gave an IC50 (UCLA-SO-M14) of under 100 nM, an IC50 (UACC-62) of under 100 nM and an IC50 (RKO) of at least 1000 nM. For the same molecule, the IC50 (HT-29) was under 100 nM, the IC50 (A375P F11s [2]) was under 100 nM and the IC50 (A101D) was under 100 nM. For the same molecule, the IC50 (WM115) was under 100 nM, the IC50 (A673) was at least 1000 nM and the IC50 (SW872) was 100 to 1000 nM. For the same molecule, the IC50 (SH-4) was under 100 nM, the IC50 (SW1417) was 100 to 1000 nM and the IC50 (SK-MEL-1) was under 100 nM. For the same molecule, the IC50 (GCT) was at least 1000 nM, the IC50 [3] was under 100 nM and the “cancer cell lines encoding B-Raf V600E sensitive with gIC50<100 nM” value [4] was 16 out of 22. For the same molecule, the “cancer cell lines not sensitive (gIC50>1000M)” value [4] was 4 out of 22, the “cancer cell lines with intermediate response (gIC50≧100 nM and <1000 nM)” value [4] was 2 out of 22 and the IC50 (DU4475) was under 100 nM. For the same molecule, the Response (A375P F11s [5]; 0.1 mg/kg qd) was “−”, the Response (A375P F11s [5]; 1 mg/kg qd) was “+ (indicates growth delay (1-2x doubling))” and the IC50 (COLO 205) was under 100 nM. It also gave an IC50 (NCI-H292) of at least 1000 nM, an IC50 (SK-MEL-3) of under 100 nM and an IC50 (SK-MEL-28) of under 100 nM. It also gave an IC50 (C32TG) of under 100 nM and an IC50 (ES-2) of under 100 nM.
